According to ChEMBL document CHEMBL4325876, “Novel 3-(2,6,9-trisubstituted-9H-purine)-8-chalcone derivatives as potent anti-gastric cancer agents: Design, synthesis and structural optimization” (Eur J Med Chem, 2019):
The source made the active and inactive calls. The calls are words filed in the database; no cut-off is given here.

Key:
MGC-803 [1] = experiment: Cytotoxicity against human MGC803 cells assessed as inhibition of cell proliferation after 72 hrs by MTT assay; format: functional, cell-based; details: MGC-803, 72 h
A549 = experiment: Cytotoxicity against human A549 cells assessed as inhibition of cell proliferation after 72 hrs by MTT assay; format: functional, cell-based; details: A549, 72 h
THP-1 = experiment: Cytotoxicity against human THP1 cells assessed as inhibition of cell proliferation after 72 hrs by MTT assay; format: functional, cell-based; details: THP-1, 72 h
TE-1 = experiment: Cytotoxicity against human TE1 cells assessed as inhibition of cell proliferation after 72 hrs by MTT assay; format: functional, cell-based; details: TE-1, 72 h
MGC-803 [2] = experiment: Induction of apoptosis in human MGC803 cells assessed as decrease in Bcl2 expression at 0.25 to 1 uM after 72 hrs by Western blot analysis; format: functional, cell-based
MGC-803 [3] = experiment: Induction of apoptosis in human MGC803 cells assessed as increase in cleaved caspase-3 level after 72 hrs by Western blot analysis; format: functional, cell-based
MGC-803 [4] = experiment: Antimigratory activity in human MGC803 cells at 0.25 to 1 uM after 72 hrs by Hoechst 33258 staining based transwell assay; format: functional, cell-based
GES1 = experiment: Cytotoxicity against human GES-1 cells assessed as inhibition of cell proliferation after 72 hrs by MTT assay; format: cell-based; details: GES1, 72 h
MGC-803 [5] = experiment: Antiinvasive activity in human MGC803 cells after 72 hrs by Hoechst 33258 staining based matrigel coated transwell assay; format: functional, cell-based
MGC-803 [6] = experiment: Induction of apoptosis in human MGC803 cells assessed as formation of apoptotic bodies at 0.25 to 1 uM after 72 hrs by Hoechst 33258 staining based fluorescence microscopic method; format: functional, cell-based
MGC-803 [7] = experiment: Antimigratory activity in human MGC803 cells at 0.25 to 1 uM after 72 hrs by wound healing assay; format: functional, cell-based
MGC-803 [8] = experiment: Induction of apoptosis in human MGC803 cells assessed as cell rounding at 0.25 to 1 uM after 72 hrs by Hoechst 33258 staining based fluorescence microscopic method; format: functional
MGC-803 [9] = experiment: Induction of apoptosis in human MGC803 cells assessed as apoptotic cells at 1 uM after 72 hrs by Annexin V-FITC/propidium iodide staining based flow cytometry (reference value: 0.6%); format: functional
MGC-803 [10] = experiment: Induction of apoptosis in human MGC803 cells assessed as increase in cleaved PARP level after 72 hrs by Western blot analysis; format: functional, cell-based
MGC-803 [11] = experiment: Induction of apoptosis in human MGC803 cells assessed as chromatin shrinkage at 0.25 to 1 uM after 72 hrs by Hoechst 33258 staining based fluorescence microscopic method; format: functional, cell-based
MGC-803 [12] = experiment: Induction of apoptosis in human MGC803 cells assessed as increase in Bax expression at 0.25 to 1 uM after 72 hrs by Western blot analysis; format: functional, cell-based
[13] = Selectivity index, ratio of IC50 for human GES-1 cells to IC50 for human MGC803 cells; format: toxicity; details: GES-1 cells versus MGC803 cells, read-out: Ratio IC50
MGC-803 [14] = experiment: Induction of apoptosis in human MGC803 cells assessed as increase in cleaved caspase-9 level after 72 hrs by Western blot analysis; format: functional, cell-based
MGC-803 [15] = experiment: Inhibition of colony formation in human MGC803 cells after 7 days by crystal violet staining based assay; format: functional, cell-based
MGC-803 [16] = experiment: Induction of apoptosis in human MGC803 cells after 72 hrs by Annexin V-FITC/propidium iodide staining based flow cytometry; format: functional, cell-based
MGC-803 [17] = experiment: Induction of apoptosis in human MGC803 cells assessed as increase in cleaved caspase-8 level after 72 hrs by Western blot analysis; format: functional, cell-based

Row | Structure (SMILES) | IC50 (MGC-803 [1]) | IC50 (A549) | IC50 (THP-1) | IC50 (TE-1) | further results
1 | CCCSc1nc(N2CCOCC2)c2nc(/C=C/C(=O)c3cccc(OC)n3)n(Cc3ccccc3)c2n1 | 8.62 µM | > 32 µM | 9.73 µM | 10.7 µM | 
2 | CCCSc1nc(N2CCOCC2)c2nc(/C=C/c3ccccc3)n(Cc3ccccc3)c2n1 | 30.5 µM | > 32 µM |  |  | 
3 | CCCSc1nc(N2CCCCC2)c2nc(/C=C/C(=O)c3ccc(C)cc3)n(Cc3ccccc3)c2n1 | 15.7 µM | > 32 µM | > 32 µM | > 32 µM | 
4 | CCCSc1nc(N2CCOCC2)c2nc(/C=C/C(=O)c3cc(OC)c(OC)c(OC)c3)n(Cc3ccccc3)c2n1 | 6.52 µM | > 32 µM | > 32 µM | 9.93 µM | 
5 | CCCSc1nc(N2CCOCC2)c2nc(/C=C/C(=O)c3ccc(C)cc3)n(Cc3ccccc3)c2n1 | 1.55 µM | 4.9 µM | 2.76 µM | 3.63 µM | 
6 | CCCSc1nc(N2CCOCC2)c2nc(/C=C/C(=O)c3ccc4ccccc4c3)n(Cc3ccccc3)c2n1 | 7.75 µM | 28.1 µM | > 32 µM | 23.8 µM | 
7 | CCCSc1nc(N2CCOCC2)c2nc(CCc3ccccc3)n(Cc3ccccc3)c2n1 | > 32 µM | > 32 µM |  |  | 
8 | CCCSc1nc(N2CCOCC2)c2nc(/C=C/C(=O)c3ccccc3Cl)n(Cc3ccccc3)c2n1 | 2.41 µM | 9.19 µM | 9.73 µM | 4.87 µM | 
9 | CCCSc1nc(N2CCOCC2)c2nc(/C=C/C(=O)c3ccc(OC)cc3)n(Cc3ccccc3)c2n1 | 3.1 µM | 7.63 µM | 2.52 µM | 5.87 µM | 
10 | CCCSc1nc(N2CCOCC2)c2nc(/C=C/C(=O)c3ccc(C)cc3)n(CCCc3ccccc3)c2n1 | 0.84 µM | 2.11 µM | 26.2 µM | 8.52 µM | Activity (MGC-803 [2]): Active; Activity (MGC-803 [3]): Dose-dependent effect; Activity (MGC-803 [4]): Active; IC50 (GES1): 23.4 µM; Activity (MGC-803 [5]): Dose-dependent effect; Activity (MGC-803 [6]): Active; Activity (MGC-803 [7]): Active; Activity (MGC-803 [8]): Active; Activity (MGC-803 [9]): 86.3%; Activity (MGC-803 [10]): Dose-dependent effect; Activity (MGC-803 [11]): Active; Activity (MGC-803 [12]): Active; selectivity ratio [13]: 27.8; Activity (MGC-803 [14]): Dose-dependent effect; inhibition (MGC-803 [15]): Dose-dependent effect; Activity (MGC-803 [16]): Dose-dependent effect; Activity (MGC-803 [17]): Dose-dependent effect
11 | CCCSc1nc(N2CCOCC2)c2nc(/C=C/C(=O)c3ccc(-c4ccccc4)cc3)n(Cc3ccccc3)c2n1 | > 32 µM | > 32 µM | > 32 µM | > 32 µM | 
12 | CCCSc1nc(N2CCOCC2)c2nc(/C=C/C(=O)c3ccc(Br)cc3)n(Cc3ccccc3)c2n1 | 3.41 µM | 10.7 µM | 11.4 µM | 13.3 µM | 
13 | CCCSc1nc(Cl)c2c(n1)N(Cc1ccccc1)C(C(=O)NCCCc1ccccc1)N2 (stereo not drawn) |  |  |  |  | IC50 (GES1): 24.9 µM; selectivity ratio [13]: 1.5; inhibition (MGC-803 [15]): Active
14 | CCCSc1nc(N2CCOCC2)c2nc(/C=C/C(=O)c3ccccc3)n(Cc3ccccc3)c2n1 | 4.74 µM | 14.9 µM | 1.41 µM | 7.38 µM | IC50 (GES1): 35.6 µM; selectivity ratio [13]: 7.5
15 | CCCSc1nc(N2CCOCC2)c2nc(-c3ccccc3)n(Cc3ccccc3)c2n1 | > 32 µM | > 32 µM |  |  | 
16 | CCCSc1nc(N2CCOCC2)c2nc(/C=C/C(=O)c3ccc(Cl)cc3)n(Cc3ccccc3)c2n1 | 8.32 µM | 17.1 µM | 3.71 µM | 19.1 µM | 
17 | CCCSc1nc(N2CCOCC2)c2nc(/C=C/C(=O)c3ccc(OC)c(OC)c3)n(Cc3ccccc3)c2n1 | 4.91 µM | 9.74 µM | > 32 µM | 8.56 µM | 
18 | CCCSc1nc(N2CCOCC2)c2nc(/C=C/C(=O)c3ccc(C)cc3)n(CC3CCCCC3)c2n1 | 4.02 µM | 10.5 µM | 3.83 µM | 8.43 µM | 
19 | CCCSc1nc(NCc2ccccc2)c2nc(/C=C/C(=O)c3ccc(C)cc3)n(Cc3ccccc3)c2n1 | 12.4 µM | 30.1 µM | > 32 µM | > 32 µM | 
